# Assay results published in the Kinase Knowledgebase extract (Sharma et al. 2016).
# Biological target: MAPK14 (human) (UniProt Q16539)
# Assay: Inhibition of MAPK14 by Human Whole Blood Assay
# Conditions: blood cells
# Chain of MAPK14 (human) (Q16539 whole entry, looked up): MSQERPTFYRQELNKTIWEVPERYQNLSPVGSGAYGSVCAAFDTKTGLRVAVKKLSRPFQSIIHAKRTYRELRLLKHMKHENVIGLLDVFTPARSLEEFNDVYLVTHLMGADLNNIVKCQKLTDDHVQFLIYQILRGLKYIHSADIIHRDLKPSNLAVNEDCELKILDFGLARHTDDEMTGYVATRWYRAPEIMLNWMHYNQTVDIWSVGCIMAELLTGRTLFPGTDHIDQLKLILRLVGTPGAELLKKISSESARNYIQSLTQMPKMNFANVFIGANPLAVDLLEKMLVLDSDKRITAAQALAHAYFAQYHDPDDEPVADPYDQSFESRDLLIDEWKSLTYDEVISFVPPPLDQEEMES
row,Structure (SMILES),IC50 [µM]
1,COCCCNc1nccc(N(CC2CCNCC2)C(=O)c2ccc3c(c2)CCO3)n1,< 1
2,C[C@H](Nc1nccc(N(C)C(=O)c2ccc3ccccc3c2)n1)c1ccccc1,≤ 1
3,C[C@H](Nc1nccc(N(CC2CCNCC2)C(=O)c2ccc3c(c2)CCO3)n1)c1ccccc1,< 1
4,C[C@H](Nc1nccc(N(CC2CCNCC2)C(=O)c2sc3ccccc3c2Cl)n1)c1ccccc1,< 1
5,CC1CCCCC1Nc1nccc(N(CC2CCNCC2)C(=O)c2ccc3c(c2)CCO3)n1 (stereo unspecified),< 1
6,C[C@H](Nc1nccc(N(CC2CCN(C3CCCC3)CC2)C(=O)c2ccc3c(c2)CCO3)n1)c1ccccc1,< 1
7,CCN(C(=O)c1ccc2c(c1)CCC2)c1ccnc(N[C@@H](C)c2ccccc2)n1,< 1
8,Nc1cc(N(Cc2ccc(F)cc2)C(=O)c2ccc3ccccc3c2)ccn1,≤ 1
9,CNc1nccc(N(CC2CCNCC2)C(=O)c2ccc3ccccc3c2)n1,< 1
10,C[C@@H](Nc1cc(N(Cc2ccc(F)cc2)C(=O)c2ccc3ccccc3c2)ccn1)c1ccccc1,≤ 1
11,O=C(c1ccc2c(c1)CCO2)N(CC1CCNCC1)c1ccnc(NC2CCC[C@@H]2O)n1 (stereo partly specified),< 1
12,C[C@H](Nc1nccc(N(C(=O)c2ccc3ccccc3c2)C2CCNCC2)n1)c1ccccc1,≤ 1
13,CCN(C(=O)c1ccc2c(c1)CCO2)c1ccnc(N[C@@H](C)c2ccccc2)n1,≤ 1
14,O=C(c1ccc2c(c1)CCO2)N(CC1CCNCC1)c1ccnc(NC2CC2)n1,< 1
15,CCN(C(=O)c1scc2c1CCCC2)c1ccnc(N[C@@H](C)c2ccccc2)n1,< 1
16,COc1ccc([C@H](C)Nc2cc(N(Cc3ccc(F)cc3)C(=O)c3ccc4ccccc4c3)ccn2)cc1,≤ 1
17,COCCN(C(=O)c1ccc2c(c1)CCC2)c1ccnc(N[C@@H](C)c2ccccc2)n1,< 1
18,CCC(Nc1cc(N(Cc2ccc(F)cc2)C(=O)c2ccc3ccccc3c2)ccn1)c1ccccc1 (stereo unspecified),≤ 1
19,C[C@H](Nc1nccc(N(CC2CC2)C(=O)c2ccc3c(c2)CCO3)n1)c1ccccc1,< 1
20,CC(C)C(C)Nc1nccc(N(CC2CCNCC2)C(=O)c2ccc3c(c2)CCO3)n1 (stereo unspecified),< 1
21,CC(C)Nc1nccc(N(CCCCN)C(=O)c2ccc3c(c2)CCO3)n1,< 1
22,O=C(c1ccc2ccccc2c1)N(Cc1ccc(F)cc1)c1ccnc(NC2CCN(Cc3ccccc3)CC2)c1,≤ 1
23,COCCNc1nccc(N(CC2CCNCC2)C(=O)c2ccc3c(c2)CCO3)n1,< 1
24,CC(C)N(C(=O)c1ccc2ccccc2c1)c1ccnc(N[C@@H](C)c2ccccc2)n1,≤ 1
25,C[C@H](Nc1nccc(N(CC2CCNCC2)C(=O)c2ccc3ccccc3c2)n1)c1ccccc1,< 1

row,Structure (SMILES),IC50 [µM]
1,C[C@H](Nc1nccc(N(Cc2ccc(F)cc2)C(=O)c2ccc3ccccc3c2)n1)c1ccccc1,≤ 1
2,O=C(c1ccc2ccccc2c1)N(Cc1ccc(F)cc1)c1ccnc(NC2CCCCC2)c1,≤ 1
3,C[C@H](Nc1cc(N(C)C(=O)N2CCc3ccccc3C2)ccn1)c1ccccc1,≤ 1
4,COCCCN(C(=O)c1ccc2ccccc2c1)c1ccnc(N[C@@H](C)c2ccccc2)n1,< 1
5,O=C(c1ccc2c(c1)CCO2)N(CC1CCNCC1)c1ccnc(NC2CCCC2)n1,< 1
6,CC(Nc1cc(N(Cc2ccc(F)cc2)C(=O)c2ccc3ccccc3c2)ccn1)c1ccc(F)cc1 (stereo unspecified),≤ 1
7,CCC(C)Nc1nccc(N(CC2CCNCC2)C(=O)c2ccc3c(c2)CCO3)n1 (stereo unspecified),< 1
8,COCCN(C(=O)c1ccc2ccccc2c1)c1ccnc(N[C@@H](C)c2ccccc2)n1,≤ 1
9,COC(=O)CN1CCC(CN(C(=O)c2ccc3c(c2)CCO3)c2ccnc(NC(C)C)n2)CC1,< 1
10,C[C@H](Nc1cc(N(Cc2ccc(F)cc2)S(=O)(=O)c2ccc3ccccc3c2)ccn1)c1ccccc1,≤ 1
11,CC(C)Nc1nccc(N(CC2CCNCC2)C(=O)c2ccc3c(c2)CCO3)n1,< 1
12,CCC(COC)Nc1nccc(N(CC2CCNCC2)C(=O)c2ccc3c(c2)CCO3)n1 (stereo unspecified),< 1
13,O=C(c1ccc2ccccc2c1)N(CC1CCNCC1)c1ccnc(NC2CCOCC2)n1,< 1
14,C[C@H](Nc1nccc(N(CCCCN)C(=O)c2ccc3c(c2)CCO3)n1)c1ccccc1,< 1
15,C[C@H](Nc1nccc(N(CC2CCNCC2)C(=O)c2ccc3c(c2)CCC3)n1)c1ccccc1,< 1
16,C[C@H](Nc1nccc(N(C(=O)c2ccc3ccccc3c2)C2CC(C)(C)NC(C)(C)C2)n1)c1ccccc1,< 1
17,COC(=O)c1ccc(CNc2cc(N(Cc3ccc(F)cc3)C(=O)c3ccc4ccccc4c3)ccn2)cc1,≤ 1
18,C[C@H](Nc1nccc(N(CC2CCNCC2)C(=O)c2cccc3ccccc23)n1)c1ccccc1,< 1
19,C[C@H](Nc1nccc(N(Cc2cccnc2)C(=O)c2ccc3ccccc3c2)n1)c1ccccc1,≤ 1
20,C[C@H](Nc1nccc(N(CC2CCNCC2)C(=O)c2ccc3c(c2)CCCC3)n1)c1ccccc1,< 1
21,CC(C)Nc1nccc(N(C(=O)c2ccc3ccccc3c2)C(C)C)n1,≤ 1
22,CC(C)Nc1nccc(N(CCCCCN)C(=O)c2ccc3c(c2)CCO3)n1,< 1
23,C[C@H](Nc1nccc(N(CC2CCNC2)C(=O)c2ccc3c(c2)CCO3)n1)c1ccccc1 (stereo partly specified),< 1
24,CC(C)(C)CNc1nccc(N(CC2CCNCC2)C(=O)c2ccc3c(c2)CCO3)n1,< 1
25,C[C@H](Nc1nccc(N(C(=O)c2ccc3ccccc3c2)C2CCN(C(=O)OC(C)(C)C)CC2)n1)c1ccccc1,< 1

# Continued, values first:
row,IC50 [µM],Structure (SMILES)
1,< 1,O=C(c1ccc2c(c1)CCC2)N(CC1CC1)c1ccnc(NC2CCC(O)CC2)n1 (stereo unspecified)
2,< 1,CC(C)Nc1nccc(N(CCC[C@@H](N)C(=O)N(C)C)C(=O)c2ccc3c(c2)CCO3)n1
3,≤ 1,O=C(c1ccc2ccccc2c1)N(Cc1ccc(F)cc1)c1ccnc(N[C@H]2CCCc3ccccc32)c1
4,< 1,CCN(C(=O)c1cccc(C)c1)c1ccnc(N[C@@H](C)c2ccccc2)n1
5,≤ 1,C[C@H](Nc1cc(N(Cc2ccc(F)cc2)C(=O)c2ccc3ccccc3c2)ccn1)c1ccc2ccccc2c1
6,< 1,CC(C)Nc1nccc(N(CC2CC2)C(=O)c2ccc3ccccc3c2)n1
7,< 1,CCN(C(=O)c1cccc(C2CC2)c1)c1ccnc(N[C@@H](C)c2ccccc2)n1
8,< 1,CCc1cccc(C(=O)N(CC)c2ccnc(N[C@@H](C)c3ccccc3)n2)c1
9,< 1,O=C(c1ccc2ccccc2c1)N(CC1CC1)c1ccnc(NC2CCC(O)CC2)n1 (stereo unspecified)
10,< 1,CCN(C(=O)c1cc(C)ccc1F)c1ccnc(N[C@@H](C)c2ccccc2)n1
11,≤ 1,O=C(c1ccc2ccccc2c1)N(Cc1ccc(F)cc1)c1ccnc(NCc2ccccc2)c1
12,≤ 1,C[C@H](Nc1nccc(N(Cc2ccc(S(C)(=O)=O)cc2)C(=O)c2ccc3ccccc3c2)n1)c1ccccc1
13,≤ 1,C[C@H](Nc1cc(N(Cc2ccc(F)cc2)C(=O)c2ccc3ccccc3c2)ncn1)c1ccccc1
14,≤ 1,CC(=O)N(Cc1ccc(F)cc1)c1ccnc(N[C@@H](C)c2ccccc2)c1
15,≤ 1,C[C@H](Nc1cc(N(Cc2ccccc2)C(=O)c2ccc3ccccc3c2)ccn1)c1ccccc1
16,≤ 1,C[C@H](Nc1cc(N(Cc2ccc(F)cc2)C(=O)c2ccccc2)ccn1)c1ccccc1
17,≤ 1,CCN(C(=O)c1ccc2snnc2c1)c1ccnc(N[C@@H](C)c2ccccc2)n1
18,≤ 1,CCCN(C(=O)c1ccc2ccccc2c1)c1ccnc(NC(C)C)n1
19,< 1,CCN(C(=O)c1cccc(Cl)c1C)c1ccnc(N[C@@H](C)c2ccccc2)n1
20,< 1,NCCCCN(C(=O)c1ccc2c(c1)CCO2)c1ccnc(NC2CCC(O)CC2)n1 (stereo unspecified)
21,< 1,CC(C)Nc1nccc(N(CC2CC[C@H](N)C2)C(=O)c2ccc3c(c2)CCO3)n1 (stereo partly specified)
22,< 1,COCCN(C(=O)c1cccc(C)c1C)c1ccnc(N[C@@H](C)c2ccccc2)n1
23,< 1,CCN(C(=O)c1cccc(Cl)c1)c1ccnc(N[C@@H](C)c2ccccc2)n1

row,IC50 [µM],Structure (SMILES)
1,≤ 1,CC(Nc1cc(N(Cc2ccc(F)cc2)C(=O)c2ccc3ccccc3c2)ccn1)c1ccc(Cl)cc1 (stereo unspecified)
2,≤ 1,CCN(C(=O)c1ccc2ccccc2c1)c1ccnc(N[C@@H](C)c2ccccc2)n1
3,< 1,CCN(C(=O)c1cccc(C(Cl)Cl)c1)c1ccnc(N[C@@H](C)c2ccccc2)n1
4,≤ 1,CC(C)Nc1cc(N(Cc2ccc(F)cc2)C(=O)c2ccc3ccccc3c2)ccn1
5,≤ 1,CCCN(C(=O)c1ccc2ccccc2c1)c1ccnc(N[C@@H](C)c2ccccc2)n1
6,< 1,C[C@H](Nc1nccc(N(CC2CCN(C(N)=O)CC2)C(=O)c2ccc3c(c2)CCO3)n1)c1ccccc1
7,< 1,CC(C)Nc1nccc(N(CCCCN2CCCC2)C(=O)c2ccc3c(c2)CCO3)n1
8,< 1,CCN(C(=O)c1cccc2c1OCCO2)c1ccnc(N[C@@H](C)c2ccccc2)n1
9,≤ 1,CCN(C(=O)c1ccc2ccccc2c1)c1ccnc(NC2CCNCC2)n1
10,< 1,C[C@H](Nc1nccc(N(CC2CC2)C(=O)c2ccc3ccccc3c2)n1)c1ccccc1
11,≤ 1,O=C(c1ccc2ccccc2c1)N(Cc1ccc(F)cc1)c1ccnc(NC(c2ccccc2)c2ccccc2)c1
12,≤ 1,C[C@H](Nc1cc(N(Cc2ccc(F)cc2)C(=O)c2cccs2)ccn1)c1ccccc1
13,≤ 1,CC(C)Nc1nccc(N(C)C(=O)c2ccc3ccccc3c2)n1
14,< 1,CCN(C(=O)c1ccc2occc2c1)c1ccnc(N[C@@H](C)c2ccccc2)n1
15,< 1,CCN(C(=O)c1cccc2c1OCC2)c1ccnc(N[C@@H](C)c2ccccc2)n1
16,≤ 1,O=C(c1ccc2ccccc2c1)N(Cc1ccc(F)cc1)c1ccnc(NCCN2CCOCC2)c1
17,< 1,CCN(C(=O)c1ccc2ccccc2c1)c1ccnc(NC2CCC(N)CC2)n1 (stereo unspecified)
18,≤ 1,COCCN(C(=O)c1ccc2ccccc2c1)c1ccnc(NC(C)C)n1
19,< 1,CCN(C(=O)c1cccc(C)c1C)c1ccnc(N[C@@H](C)c2ccccc2)n1
20,≤ 1,CCN(C(=O)c1ccc2nccnc2c1)c1ccnc(N[C@@H](C)c2ccccc2)n1
21,< 1,COCC(C)Nc1nccc(N(CCCCN)C(=O)c2ccc3c(c2)CCO3)n1 (stereo unspecified)
22,≤ 1,O=C(c1ccc2ccccc2c1)N(Cc1ccc(F)cc1)c1ccnc(N[C@H]2CCc3ccccc32)c1
23,≤ 1,CC(C)Nc1nccc(N(Cc2ccc(F)cc2)C(=O)c2ccc3ccccc3c2)n1
